Read-outs that look alike come from different tables or passages of the source. One block for each compound: values may come before it.
Key:
[1] = target: purified prokaryotic 20S proteasome (Methanosarcina thermophila, UniProt Q9P992); test: Chymotrypsin-like activity of purified 20S proteasome (fluorogenic substrate Suc-Leu-Leu-Val-Tyr-AMC); format: biochemical; settings: for inhibition at 100 µM: read-out: inhibition of proteasomal chymotrypsin-like activity
Procedure: This example describes the how to analyze the inhibitory effect of isolated fractions of mate tea in vitro, using purified 20S proteasome. The chymotrypsin-like activity of purified 20S proteasome was measured as previously described (Nam et al., (2001) J. Biol. Chem. 276, 13322-13330). Briefly, purified prokaryotic 20S proteasome (0.5 μg) was incubated with 20 μM fluorogenic peptide substrate, Suc-Leu-Leu-Val-Tyr-AMC for 30 min at 37° C. in 100 μl of assay buffer (50 mM Tris-HCl, pH 7.5), with or without a mate tea fraction at indicated concentrations. After incubation, production of hydrolyzed 7-amido-4-methyl-coumarin (AMC) groups was measured using a multi-well plate VersaFluor™ Fluorometer with an excitation filter of 380 nm and an emission filter of 460 nm (Bio-Rad).
The quinic acid esters resemble the proteasome inhibitor (−)-epigallocatechin gallate [(−)-EGCG] in that they contain hydroxylated aromatic carboxylic acids esterified to a polyhydroxylated aliphatic ring (FIG. 3). Based upon this similarity, and the previous finding that epigallocatechin gallate is an inhibitor of proteasomes (Ren et al., (2000) Oncogene 19, 1419-1427; Nam et al., (2001) J. Biol. Chem. 276, 13322-13330)), the ability of fractions T-2, T-5, and T-6 to inhibit proteasome function was assessed. To determine the ability of quinic acid esters to inhibit proteasome activity, a fluorescent substrate activity assay was performed with purified 20S proteasome. Epigallocatechin gallate (EGCG, Sigma Chemical Company, St Louis, Mo.) was used as a positive control for proteasome inhibition. To ensure complete inhibition of the proteasome, 100 μM EGCG was used. The compound 3,5-dicaffeoylquinic acid (3,5-DCQ) was tested against proteasome activity in three different concentrations: 20, 100, and 200 μg/ml, which correspond to 37, 183, and 366 μM respectively (FIG. 4).

[2] = system: SVR cells; test: SVR cell proliferation assay; format: cell-based; settings: 10 mg/ml, 72 hours exposure, Coulter Counter
Procedure: The filtered aqueous extract was lyophilized to a dry powder, which was dissolved in distilled water and analyzed by HPLC, and 5 fractions were collected. HPLC fractions were lyophilized. Each fraction was reconstituted into 10 mg/ml solutions, and the ability to inhibit proliferation of SVR cells was tested.
SVR cells (1×10^4) were plated for 24 hours in a 24-well plate. The media was then changed to DMEM containing purified extract at a concentration of 10 mg/ml. Cells were exposed to drug for 72 hours and were counted with a Coulter Counter (Coulter, Hialeah, Fla.) according to the method of Lamontagne et al (LaMontagne et al., (2000) Am. J. Pathol. 157, 1937-1945). […] In order to determine the component of mate tea responsible, the aqueous extract was fractionated by HPLC, and the ability of the fractions to inhibit SVR cell proliferation was assessed. […] The structures of T-2, T-5, and T-6 were elucidated by proton NMR and mass spectroscopy (FIG. 1). […] The NMR spectra of the compounds are shown below.

[3] = target: T1, 26S proteasome in Jurkat T cell extracts (Homo sapiens, UniProt P28074); test: Proteasome chymotrypsin-like activity in Jurkat T cell extracts; format: biochemical; settings: 60 min at 37° C.
T1 construct: Whole cell extracts (20 μg) of Jurkat T cells; endogenous in cells; host or cells: Jurkat T cells (whole cell extract)
T1 sequence (P28074 60-263): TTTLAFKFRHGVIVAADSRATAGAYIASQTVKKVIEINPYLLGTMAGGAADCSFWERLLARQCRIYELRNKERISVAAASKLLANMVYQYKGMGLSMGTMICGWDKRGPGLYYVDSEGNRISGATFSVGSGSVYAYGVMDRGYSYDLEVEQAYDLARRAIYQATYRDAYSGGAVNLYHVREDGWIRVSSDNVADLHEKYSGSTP
Procedure: This example describes the how to analyze the inhibitory effect of isolated fractions of mate tea in vivo, using cell extracts of the Jurkat cancer cell line. Whole cell extracts (20 μg) of Jurkat T cells were incubated for 60 min at 37° C. with 20 μM of fluorogenic peptide substrate Suc-Leu-Leu-Val-Tyr-AMC in […] of the assay buffer, with or without a mate tea fraction at indicated concentrations. The hydrolyzed AMCs were quantified as described above.
The abilities of 3,5-DCQ and neochlorogenic acid to inhibit the 26S proteasome activity in Jurkat cell extracts was tested.

[4] = system: Jurkat T cells; test: Cell cycle analysis of Jurkat T cells by flow cytometry (propidium iodide); format: cell-based; settings: for arrest of Jurkat cells in G2/M phase: 2 μg/ml for 24 h; for increase of G2/M population: 20 μg/ml for 24 h
Procedure: To investigate the inhibitory effect of the fractions on cell cycle, Jurkat cells exposed to each fraction were analyzed by flow cytometry. Cell cycle analysis based on DNA content was performed as described previously (See Nam et al., 2001). The cell cycle distribution is shown as the percentage of cells containing G1, S, G2, and M DNA judged by propidium iodide staining.
The proteasome-inhibitory potencies of 3,5-DCQ and neochlorogenic acid were identified as being associated with growth-inhibitory activity in vivo, based on treating Jurkat T cells with each compound at a concentration of 2 or 20 μg/ml for 24 h. After treatment, the cells were harvested and assayed by flow cytometry. […] In contrast, neochlorogenic acid at the same concentrations had no effects.

[5] = system: inositol-1,4,5-triphosphate 3 kinase (GgIP3K-A); test: Inositol-1,4,5-triphosphate 3 kinase activity assay (Mayr et al.); format: biochemical; settings: FIG. 6
Procedure: An assay was performed as described in Mayr et al., (2005) J. Biol. Chem. 280: 13229-13240, incorporated herein by reference. […] Inhibition of the kinase activity may be important in HIV.

[6] = at 100 μM, purified 20S proteasome
[7] = at 20 μg/ml (37 μM 3,5-DCQ; 56 μM neochlorogenic acid)
[8] = at 100 μg/ml (183 μM 3,5-DCQ; 282 μM neochlorogenic acid)

Sequence of purified prokaryotic 20S proteasome (Q9P992 10-210): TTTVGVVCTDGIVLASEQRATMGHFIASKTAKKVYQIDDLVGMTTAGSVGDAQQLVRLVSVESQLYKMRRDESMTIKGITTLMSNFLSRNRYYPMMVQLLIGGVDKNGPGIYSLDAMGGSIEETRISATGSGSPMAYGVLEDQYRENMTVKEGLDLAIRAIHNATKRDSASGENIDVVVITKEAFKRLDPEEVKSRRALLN
Sequence of purified prokaryotic 20S proteasome (Q59565 whole entry, further chain): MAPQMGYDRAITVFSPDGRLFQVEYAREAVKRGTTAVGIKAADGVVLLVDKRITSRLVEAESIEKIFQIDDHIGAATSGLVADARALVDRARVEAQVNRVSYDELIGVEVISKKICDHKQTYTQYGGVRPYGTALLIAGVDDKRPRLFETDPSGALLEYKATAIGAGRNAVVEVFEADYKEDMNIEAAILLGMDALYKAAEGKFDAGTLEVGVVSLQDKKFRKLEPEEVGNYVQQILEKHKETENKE

inhibition of proteasomal chymotrypsin-like activity [1, 6]: 40%
Compound: O=C(/C=C/c1ccc(O)c(O)c1)O[C@@H]1[C@H](O)C[C@@](O)(C(=O)O)C[C@H]1OC(=O)/C=C/c1ccc(O)c(O)c1 (stereo in doubt) [T-6, 3,4-Dicaffeoylquinic acid]
inhibition of SVR cell proliferation [2]: most potent inhibitory effects

inhibition at 20 µg/mL [3, 7]: ~50%
inhibition at 100 µg/mL [3, 8]: ~85%
inhibition at 100 µM [1, 6]: 60%
Compound: O=C(C=Cc1ccc(O)c(O)c1)OC1CC(O)(C(=O)O)CC(OC(=O)C=Cc2ccc(O)c(O)c2)C1O (stereo not shown) [3,5-DCQ, 3,5-Dicaffeoylquinic acid]
arrest of Jurkat cells in G2/M phase [4]: very slight arrest
increase of G2/M population [4]: ~10%
inhibition of SVR cell proliferation [2]: most potent inhibitory effects

activity against proteasomes (qualitative) ([1]; used as a control, chymotrypsin-like proteasome activity (FIG. 5)): activity against proteasomes
inhibition of IP-3 kinase activity (qualitative) [5]: inhibit
Compound: CC(C)(C)c1cc(CCC(=O)OCC(COC(=O)CCc2cc(C(C)(C)C)c(O)c(C(C)(C)C)c2)(COC(=O)CCc2cc(C(C)(C)C)c(O)c(C(C)(C)C)c2)COC(=O)CCc2cc(C(C)(C)C)c(O)c(C(C)(C)C)c2)cc(C(C)(C)C)c1O [PTTC, Pentaerythritol tetrakis (3,5-di-tert-butyl-4-hydroxyhydrocinnamate), reference compound]

Compound: O=C(C=Cc1ccc(O)c(O)c1)OC1CC(O)(C(=O)O)CC(O)C1O (stereo not shown) [neochlorogenic acid, 5-Caffeoylquinic acid]
inhibition of 26S proteasome activity in Jurkat cell extracts [3, 7]: ~30%
inhibition of 26S proteasome activity in Jurkat cell extracts [3, 8]: ~75%
inhibition at 100 µM [1]: 21%
arrest of Jurkat cells in G2/M phase [4]: no effects
increase of G2/M population [4]: no effects
inhibition of SVR cell proliferation [2]: most potent inhibitory effects

Source: US8809283B2, “Proteasome inhibitors and uses thereof” (Natuderm, LLC, priority 2005, dated 2014)
